Results reported in patent US20140096445A1, “METHOD OF CULTIVATION IN WATER DEFICIT CONDITIONS” (SYNGENTA PARTICIPATIONS AG, priority 2011, published 2014).
Marks after values point to notes of the source that are not given here.

Columns and labels:
Assay type in all cases: in vivo
soybean [1] = assay: Sprinkler irrigation field study on soybean yield, deficit vs fully irrigated, Examples 27-28
Description: Testing Procedure: The overall objective was to conduct an irrigation management test to study the effects of fungicides and crop enhancement products on yield, WUE, and disease control under full irrigation and deficit irrigation conditions. This was a sprinkler irrigation field study conducted on a deep silt loam soil. The test was set up to specifically quantify the impact of azoxystrobin and acibenzolar-S-methyl on soybean yield and water productivity of soybean under limited (deficit) and fully-irrigated settings. The study utilized a sprinkler irrigation system. The study was replicated three times in an […]. Irrigation control panels, chemical injection pumps, and filters were housed at the irrigation well house to manage irrigation and chemigation events.
Soil water status was monitored throughout the growing season using soil moisture sensors. Soybean variety NK S31-L7 was planted on May 11, 2011 at the rate of 150,000 seed per acre. Testing parameters, and irrigation levels were conducted according to the University of Nebraska experimental procedure [see e.g., (1) Irmak, et. al.] Moisture levels, irrigation levels, evapotranspiration, and plant health were measured throughout the growing season. Climatic variables were measured (air temperature, rainfall, solar and net radiation, relative humidity, rainfall, wind speed and direction) throughout the season. Irrigation for the fully irrigated treatments was scheduled according to need by a climatic water budget using calculated evapotranspiration as a withdrawal and with rainfall and irrigation as deposits. […] Volumetric soil water content was measured in one-foot increments to a depth of 8 ft on an approximately weekly basis throughout the crop season to determine total water use. Crop water use was calculated as the sum of irrigation, precipitation and changes in soil water between the initial and final soil water sampling dates. Water productivity (WUE) was calculated as the crop yield divided by the seasonal water use (Water Productivity (WP)=Yield/ETc). […]

soybean [2] = assay: Lateral-move sprinkler irrigation field study on soybean, Examples 29-30; conditions: soybean, sprinkler irrigation
soybean [3] = assay: Sprinkler irrigation field study on soybean yield and WUE, Table 14 (treatments 31-32)
corn [4] = assay: Greenhouse subsurface drip irrigation trial, deficit irrigated, Examples 4-8; conditions: for % Yield Increase by Product over Untr./50% Irr. / Yield: SDI chemigated at V3/V4, 50% irrigated deficit, Azoxystrobin 261, PPZ 126, TXP 250, PBZ 12.5, TMX 70 gai/ha; for Yield compared with the control, in words: water stress regime (50% irrigated), SDI
Description: (§1) A greenhouse subsurface drip irrigation trial was conducted on corn to evaluate treatment effects on yield in fully irrigated vs. deficit irrigated conditions. In this experiment, standardized growth conditions were applied across all corn treatments including: soil-water availability, soil texture and composition, soil chemical and physical properties, meteorological and environmental parameters, and plant nutrition in a greenhouse. No indication of plant disease or pest damage was observed over the course of the study and no pest management program was necessary. A homogeneous sand-organic matter soil mixture (0.18% organic matter) was used as the growth medium in 55-gal containers. These containers were used as a weighing lysimeter, where daily changes in system weight were used to calculate plant transpiration. Four corn plants were grown in each 55-gal container. Three 55-gal containers (12 plants total) made up each treatment. All irrigation and chemical treatments were applied via sub-surface irrigation. Chemical treatments consisted of: azoxystrobin (Quadris), paclobutrazol (Trimmit), trinexapac-ethyl (Moddus), and propiconazole (Tilt) at maximum labeled rates.
(§2) Corn plants were grown from seed and transplanted in the 55-gal drums approximately 14 days after planting. Uniform adequate irrigation was applied up to growth stage V3/V4 to ensure plant establishment. Chemical treatment applications were applied at growth stage V3/V4 via sub-surface chemigation. At stage V3/V4, irrigation was decreased to replicate deficit water conditions across all treatments for the remainder of the study period. Irrigation was managed daily to maintain 50% plant-available water. Visual signs of abiotic plant stress were observed approximately 30 days after chemical application. All corn plants were grown to yield and cobs were harvested when kernels were uniformly dry (15% moisture content). Root architecture, specifically relative number of fine roots, was measured at within 2 weeks of harvest using a digital imaging technique. Fine roots are related to water uptake productivity, which is directly tied to the ability of the plant to access soil-water under stress.

corn [5] = assay: Greenhouse sub-surface chemigation, yield and root architecture under deficit water, Examples 20-23; conditions: for Yield (% difference from UTC) / Relative number of fine roots (% difference from UTC): sub-surface chemigation at V3/V4, maximum labeled rates, 50% plant-available water; for Relative number of fine roots (% difference from UTC): within 2 weeks of harvest
Description: as §1, with “In” for “A greenhouse subsurface drip irrigation trial was conducted on corn to evaluate treatment effects on yield in fully irrigated vs. deficit irrigated conditions. In”
as §2

[6] = 60% irrigated deficit, Acibenzolar-S-methyl 10 gai/ha, Azoxy foliar 150 gai/ha + Acibenzolar-S-methyl 10 gai/ha

SMILES | Yield, statistical statement (soybean [1]; 60% Irrigation (deficit)) | % Yield Increase over Untr./60% irr. (soybean [1]; [6]) | Yield (soybean [1]; [6]) [Bu./acre] | Water productivity, in words (soybean [2]) | Yield compared with the untreated, in words (soybean [3]; Azoxystrobin: foliar (2 applications) at 60% & 100% irrigated) | WUE differences, in words (soybean [3]; water deficit regime) | % Yield Increase by Product over Untr./50% Irr. (corn [4]) | Yield (corn [4]) | Yield compared with the control, in words (corn [4]) | Yield (% difference from UTC) (corn [5]) | Relative number of fine roots (% difference from UTC) (corn [5]) | Yield compared with the control, statistical statement (corn [5]; sub-surface chemigation, abiotic stress, P values <0.001 at the 95th percentile confidence interval)
CSC(=O)c1cccc2nnsc12 [Acibenzolar-S-methyl, acibenzolar-S-methyl] | significant difference in yield | +1% over Untr./60% irr. | 53.1 | increase in water productivity | differences in yield over the untreated | Good WUE differences | – | – | – | – | – | –
CC(C)(C)[C@@H](O)[C@@H](Cc1ccc(Cl)cc1)n1cncn1 (racemic) [PBZ, paclobutrazol] | – | – | – | – | – | – | +16.6% Incr. over Untr./50% Irr. | 2152† Kg/Ha | statistically higher than the control | 16.6† % | 70.0† % | statistically different from the control
CCCC1COC(Cn2cncn2)(c2ccc(Cl)cc2Cl)O1 (stereo not shown) [PPZ, propiconazole] | – | – | – | – | – | – | +3.3% Incr. over Untr./50% Irr. | 1906 Kg/Ha | statistically higher than the control | 3.3% | 39.4† % | –
CN1COCN(Cc2cnc(Cl)s2)/C1=N\[N+](=O)[O-] [TMX, thiamethoxam] | – | – | – | – | – | – | +4% Incr. over Untr./50% Irr. | 1916 Kg/Ha | – | – | – | –
